The test system of one experiment is HCT116 MTAP null cells. Kind of experiment: HCT116 proliferation assay, MTAP null cells (CellTiter-Glo, 6 days). It counts as cell-based. Conditions: read-out: Protif_ HCT116-MTAP null IC50. In a few lines:
(§1)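 Compound titrations (top dose 1 or 10 µM, 1:3 dilution, 8 or 9 concentrations) and a DMSO control were applied to cells cultured overnight beforehand in RPMI 1640 with 10% FBS at 37° C, 5% CO2; viability was scored from luminescence.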
(In general: ATP-based viability assays read luminescence as a measure of living cells.)

For a further experiment, the system named is HCT116 WT cells. Kind of experiment: HCT116 proliferation assay, WT cells (CellTiter-Glo, 6 days). Conditions: read-out: Prolif_HCT116-WT IC50. The class given is cell-based. The method in brief: as §1
A further experiment deals with PRMT5/MEP50 (Homo sapiens, UniProt O14744). Kind of experiment: MTase-Glo methyl transferase assay, Method B (FL-Histone H2A, 1 µM MTA, 1 h pre-incubation). The class given is biochemical. The arrangement: purchased Reaction Biology Corp RD-11-292. Conditions: read-out: PRMT5 MTase Glo Ki (nM, Meth. B). The method in brief: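 PRMT5/MEP50 (4 nM) was pre-incubated 1 h with compound, 5 µM SAM and 1 µM MTA, then started with 2.5 µM FL-Histone H2A in Tris pH 8.0 buffer. After 20 h at room temperature, SAH was detected by MTase-Glo luminescence, and IC50/KI were fitted from dose-response curves.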

Where two headings read alike, the source gives them in different places.

Experimental findings from patent US20230159510A1, “NOVEL PRMT5 INHIBITORS” (AMGEN INC., priority 2020, published 2023) are described below.

One may read the IC50 as the midpoint of a concentration-inhibition curve. For orientation: Ki means a measure of affinity in units of concentration, obtained from inhibition or displacement.

Chain of PRMT5/MEP50 (O14744 2-637 limits assumed): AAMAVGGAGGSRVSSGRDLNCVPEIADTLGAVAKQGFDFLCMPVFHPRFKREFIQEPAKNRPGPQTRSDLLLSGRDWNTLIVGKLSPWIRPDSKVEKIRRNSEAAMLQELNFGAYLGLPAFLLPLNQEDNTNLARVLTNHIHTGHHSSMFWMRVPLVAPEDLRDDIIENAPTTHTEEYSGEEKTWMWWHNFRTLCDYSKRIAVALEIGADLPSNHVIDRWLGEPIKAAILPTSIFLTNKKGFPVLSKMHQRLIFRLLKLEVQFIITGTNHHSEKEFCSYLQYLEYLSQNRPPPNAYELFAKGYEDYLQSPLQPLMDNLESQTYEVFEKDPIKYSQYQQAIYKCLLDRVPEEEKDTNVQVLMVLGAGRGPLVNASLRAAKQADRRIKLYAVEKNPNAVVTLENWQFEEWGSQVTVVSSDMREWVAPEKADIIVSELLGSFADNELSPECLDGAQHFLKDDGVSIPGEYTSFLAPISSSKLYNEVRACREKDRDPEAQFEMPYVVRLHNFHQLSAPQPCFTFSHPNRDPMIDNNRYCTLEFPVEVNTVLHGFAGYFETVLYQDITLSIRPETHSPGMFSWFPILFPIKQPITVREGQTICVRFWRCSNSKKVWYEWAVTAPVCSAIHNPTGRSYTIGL
Chain of PRMT5/MEP50 (Q9BQA1 2-342 partner limits assumed): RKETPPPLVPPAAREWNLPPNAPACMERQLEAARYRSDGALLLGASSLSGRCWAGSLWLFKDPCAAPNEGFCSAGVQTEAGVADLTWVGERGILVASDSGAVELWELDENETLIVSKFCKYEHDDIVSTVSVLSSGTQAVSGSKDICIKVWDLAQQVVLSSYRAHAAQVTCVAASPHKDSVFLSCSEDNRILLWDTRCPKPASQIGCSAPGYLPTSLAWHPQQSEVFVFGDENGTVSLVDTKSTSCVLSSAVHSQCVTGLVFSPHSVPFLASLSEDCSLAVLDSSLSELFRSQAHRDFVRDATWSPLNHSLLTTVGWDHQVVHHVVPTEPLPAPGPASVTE

Take “2-amino-3-methyl-N-[(4-methylthiazol-5-yl)methyl] -N-[[5-(trifluoromethyl)-2-pyridyl]methyl] quinoline-6-carboxamide [Example 565]”: the IC50 was determined as 94 nM in the experiment on HCT116 MTAP null cells and 3490 nM in the experiment with HCT116 WT cells. Besides, the Ki on PRMT5/MEP50 amounted to 2.77 nM.
With `Cc1cc2cc(C(=O)N(Cc3ccc(C(F)(F)F)cn3)Cc3c[nH]c4ccccc34)ccc2nc1N` [Example 567, 2-amino-N-(1H-indol-3-ylmethyl)-3-methyl-N-[[5-(trifluoromethyl)-2-pyridyl]methyl] quinoline-6-carboxamide], the half-inhibitory concentration (IC50) is 103 nM in the experiment with HCT116 MTAP null cells (HCT116-MTAP null, 144 h) and greater than 1000 nM with HCT116 WT cells (Homo sapiens, HCT-116, 144 h). Also, the Ki at PRMT5/MEP50 turned out to be 4.44 nM.
Turning to `Cc1cc2cc(C(=O)N(Cc3ccc(C(F)(F)F)cn3)Cc3cocn3)ccc2nc1N` [Example 580, 2-amino-3-methyl-N-(oxazol-4-ylmethyl)-N-[[5-(trifluoromethyl)-2-pyridyl]methyl] quinoline-6-carboxamide], the IC50 stood at 110 nM in the experiment on HCT116 MTAP null cells (HCT116-MTAP null, 144 h) and 5600 nM in the experiment with HCT116 WT cells (Homo sapiens, HCT-116, 144 h). Further, on PRMT5/MEP50, the Ki is 2.24 nM.
The matching figures for `COC(CN(Cc1ccc(C(F)(F)F)cn1)C(=O)c1ccc2nc(N)c(C)cc2c1)C(C)C` (stereo not drawn) [Example 613, 2-amino-N-(2-methoxy-3-methylbutyl)-3-methyl-N-((5-(trifluoromethyl)pyridin-2-yl)methyl)quinoline-6-carboxamide]: 269 nM, 3900 nM and 4.35 nM.
The corresponding values for `Cc1cc2cc(C(=O)N(Cc3ccc(N4CCC(C(N)=O)CC4)cc3)Cc3scnc3C)ccc2nc1N` [Example 572, 2-amino-N-(4-(4-carbamoylpiperidin-1-yl)benzyl)-3-methyl-N-((4-methylthiazol-5-yl)methyl)quinoline-6-carboxamide] are 608 nM, greater than 10000 nM and 3.48 nM.
With `Cc1cc2cc(C(=O)N(Cc3cncc(F)c3)Cc3ccc(C(F)(F)F)cn3)ccc2nc1N` [Example 597, 2-amino-N-((5-fluoropyridin-3-yl)methyl)-3-methyl-N-((5-(trifluoromethyl)pyridin-2-yl)methyl)quinoline-6-carboxamide], the IC50 in the experiment on HCT116 MTAP null cells (HCT116-MTAP null, 144 h) is 300 nM; in the experiment on HCT116 WT cells (Homo sapiens, HCT-116, 144 h) it was greater than 1000 nM. Also, the inhibition constant Ki on PRMT5/MEP50 stood at 6.35 nM.
For `Cc1csc(CN(Cc2ccc(C(F)(F)F)cn2)C(=O)c2ccc3nc(N)c(C)cc3c2)n1` [Example 708, 2-amino-3-methyl-N-[(4-methylthiazol-2-yl)methyl]-N-[[5-(trifluoromethyl)-2-pyridyl]methyl]quinoline-6-carboxamide], the IC50 in the experiment with HCT116 MTAP null cells (HCT116-MTAP null, 144 h) is 155 nM; with HCT116 WT cells (Homo sapiens, HCT-116, 144 h), greater than 1000 nM. Also, at PRMT5/MEP50, the Ki worked out at 2.79 nM.
The matching figures for `Cc1cc2cc(C(=O)N(Cc3ccc(C(F)(F)F)cn3)C3CCc4sc(Cl)cc43)ccc2nc1N` (stereo not drawn) [Example 607, 2-amino-N-(2-chloro-5,6-dihydro-4H-cyclopenta[b]thiophen-4-yl)-3-methyl-N-((5-(trifluoromethyl)pyridin-2-yl)methyl)quinoline-6-carboxamide]: 370 nM, greater than 3200 nM and 7.26 nM.
With `Cc1cc2cc(C(=O)N(Cc3ccc(C(F)(F)F)cn3)C3CCc4c(O)cccc43)ccc2nc1N` (stereo not drawn) [Example 628, 2-amino-N-(4-hydroxy-2,3-dihydro-1H-inden-1-yl)-3-methyl-N-((5-(trifluoromethyl)pyridin-2-yl)methyl)quinoline-6-carboxamide], the 50% inhibitory concentration (IC50) in the experiment on HCT116 MTAP null cells (HCT116-MTAP null, 144 h) turned out to be 53 nM; in the experiment with HCT116 WT cells (Homo sapiens, HCT-116, 144 h), 440 nM. For the same compound, the inhibition constant Ki at PRMT5/MEP50 was in the range of 3 to 4 nM.
Regarding `Cc1cc2cc(C(=O)N(Cc3ccc4[nH]ncc4c3)Cc3ccc(C(F)(F)F)cn3)ccc2nc1N` [Example 618, N-((1H-indazol-5-yl)methyl)-2-amino-3-methyl-N-((5-(trifluoromethyl)pyridin-2-yl)methyl)quinoline-6-carboxamide], the half-maximal inhibitory concentration (IC50) was 55 nM with HCT116 MTAP null cells and 1400 nM in the experiment on HCT116 WT cells. Further, the Ki at PRMT5/MEP50 amounted to 1.59 nM.
Turning to `Cc1cc2cc(C(=O)N(Cc3ccc(C(F)(F)F)cn3)C3COc4ccccc43)ccc2nc1N` (stereo not drawn) [Example 608, 2-amino-N-(2,3-dihydrobenzofuran-3-yl)-3-methyl-N-((5-(trifluoromethyl)pyridin-2-yl)methyl)quinoline-6-carboxamide], the IC50 with HCT116 MTAP null cells (HCT116-MTAP null, 144 h) is 400 nM; in the experiment with HCT116 WT cells (Homo sapiens, HCT-116, 144 h) it was greater than 1000 nM. Further, the Ki on PRMT5/MEP50 worked out at 5.26 nM.
The matching figures for `Cc1cc2cc(C(=O)N(Cc3ccc(C(F)(F)F)cn3)CC3CCC3)ccc2nc1N` [Example 562, 2-amino-N-(cyclobutylmethyl)-3-methyl-N-[[5-(trifluoromethyl)-2-pyridyl]methyl]quinoline-6-carboxamide]: 455 nM, greater than 1000 nM and 3.76 nM.
The corresponding values for `Cc1cc2cc(C(=O)N(Cc3ccc(C(F)(F)F)cn3)C3CCc4[nH]ncc4C3)ccc2nc1N` (stereo not drawn) [Example 672, 2-amino-3-methyl-N-(4,5,6,7-tetrahydro-1H-mdazol-5-yl)-N-[[5-(trifluoromethyl)-2-pyridyl]methyl] quinoline-6-carboxamide] are 404 nM, greater than 1000 nM and 5.56 nM.
As to `Cc1cc2cc(C(=O)N(Cc3ccc4cn[nH]c4c3)Cc3ccc(C(F)(F)F)cn3)ccc2nc1N` [Example 619, N-((1H-indazol-6-yl)methyl)-2-amino-3-methyl-N-((5-(trifluoromethyl)pyridin-2-yl)methyl)quinoline-6-carboxamide], the IC50 was 128 nM with HCT116 MTAP null cells (HCT116-MTAP null, 144 h) and 1300 nM in the experiment with HCT116 WT cells (Homo sapiens, HCT-116, 144 h). Moreover, the Ki at PRMT5/MEP50 came to 1.87 nM.
The corresponding values for `Cc1cc2cc(C(=O)N(Cc3ccc(C(F)(F)F)cn3)C3CCc4nc(N)ncc4C3)ccc2nc1N` (stereo not drawn) [Example 668, 2-amino-N-(2-amino-5,6,7,8-tetrahydroquinazolin-6-yl)-3-methyl-N-[ [5-(trifluoromethyl)-2-pyridyl]methyl] quinoline-6-carboxamide] are 270 nM, greater than 1000 nM and 4.69 nM.
The corresponding values for `Cc1cc2cc(C(=O)N(Cc3ccc(C(F)(F)F)cn3)CC(C)C3CC3)ccc2nc1N` (stereo not drawn) [Example 575, 2-amino-N-(2-cyclopropylpropyl)-3-methyl-N-((5-(trifluoromethyl)pyridin-2-yl)methyl)quinoline-6-carboxamide] are 78 nM, greater than 1000 nM and 2.89 nM.
The matching figures for `Cc1cc2cc(C(=O)N(Cc3ccc(CC(N)=O)cc3)Cc3ccc(C(F)(F)F)cn3)ccc2nc1N` [Example 680, 2-amino-N-[ [4-(2-amino-2-oxoethyl)phenyl]methyl]-3-methyl-N-[[5-(trifluoromethyl)-2-pyridyl]methyl] quinoline-6-carboxamide]: 157 nM, 7700 nM and 1.76 nM.
In the case of `COC(CN(Cc1ccc(C(F)(F)F)cn1)C(=O)c1ccc2nc(N)c(C)cc2c1)C(F)(F)F` (stereo not drawn) [Example 611, 2-amino-3-methyl-N-(3,3,3-trifluoro-2-methoxypropyl)-N-((5-(trifluoromethyl)pyridin-2-yl)methyl)quinoline-6-carboxamide], the 50% inhibitory concentration (IC50) is 70 nM in the experiment on HCT116 MTAP null cells (HCT116-MTAP null, 144 h) and greater than 1000 nM in the experiment on HCT116 WT cells (Homo sapiens, HCT-116, 144 h). At PRMT5/MEP50, the Ki is 3 to 7 nM.
